Source: patent US8361802B2, “Fluorescent ozone sensor” (University of Pittsburgh—Of the Commonwealth System of …, priority 2009, dated 2013)

Columns and labels:
[1] = Ozone detection in indoor air on adsorbent paper strips; conditions: 500 nmol on adsorbent paper, photocopy room, eight hours
Protocol: One embodiment of the present invention can be a badge that contains compound 4 that may be worn by patients so their total ozone exposure can be continuously measured through the day. A proof-of-principle experiment was conducted with compound 4 and compound 1 as a comparative. A solution of compound 4 (500 nmol) in dimethylsulfoxide (DMSO) was absorbed on a piece of adsorbent paper and allowed to dry. The paper strips were stored in an office room that had two photocopiers and two laser printers. After eight hours, the paper strips were removed and placed in a vial that contained oH 7 buffer to elute the dyes. […] The deviation in these values is presumably because of photobleaching and the lack of specificity of compound 1 towards various ROS, including singlet oxygen.
Ozone detection in indoor air. FIG. 10 are photographic illustrations of results of Ozone detection tests in indoor air using the present invention. The top photograph is a Kimwipe® before placing into photocopy room for 8 hours. The bottom photographs are a Kimwipe® in buffer for absorbance and fluorescence measurement, wherein the left photograph is an indigo carmine taken in room light), and the right photograph is compound 4 taken under long-range UV lamp. One adsorbent paper (Kimwipe®) was cut into two 11×9 cm pieces. Solution A (50 μL, 500 nmol of compound 4) was added to one portion of the Kimwipe® and allowed to dry (FIG. 10, top right). Solution B (50 μL, 500 nmol of indigo carmine) was added to the other portion of the Kimwipe® and allowed to dry (FIG. 10, top left). After overnight drying in a laboratory drawer, the paper strips were moved to a poorly ventilated photocopy room (2 photocopiers and 2 laser printers) for 8 hours. The controls remained in the laboratory drawer. After 8 hours, the samples were placed into a scintillation vial, and the dyes were eluted with pH 7 buffer (6.0 mL) (˜5 min) before fluorescence and absorbance measurement. […] FIGS. 3C-D error bars were determined from the calculated mean and standard deviation (Prism 5.0a, GraphPad Software, Inc.).

Relative quantum yields = assay type: physicochemical; conditions: relative to fluorescein; phosphate buffer pH=7.0, excited at 490 nm
Protocol: Relative Quantum Yields. To determine quantum yields relative to fluorescein, a stock solution of compound 4 was prepared in DMSO (1 mM) and diluted in phosphate buffer (pH=7.0) to OD490=0.09. The samples were excited at 490 nm and the integrated emission spectra were compared. The quantum yields of all compounds were referenced to fluorescein in 0.1 N NaOH (Φ=0.95). The quantum yield for compound 4 was calculated as 0.00132

quantum yield (Relative quantum yields): 0.00132
Compound: C=CCCOc1cc2oc3cc(=O)c(Cl)cc-3c(-c3ccccc3CO)c2cc1Cl [compound 4]
compound 7 generated on paper strip [1]: 0.95 nmol
